# Source: patent US12551500B2, “C6′-substituted locked nucleic acid-modified cap analog and use thereof” (Hangzhou Tianlong Pharmaceutical Co., Ltd., priority 2024, dated 2026)
# Key:
# T7 RNA polymerase [1] = target: T1, T7 RNA polymerase (Escherichia phage T7, UniProt P00573); experiment: In vitro transcription yield of mRNA with cap analog (co-transcriptional capping); assay type: biochemical
# Experimental: (1) Capping synthesis using cap analogs
# The plasmid was first linearized with plasmid linearizing enzyme, and then the linearized plasmid was purified.
# (2) In vitro transcription and synthesis of mRNA
# (§1) YK-CAP-001 to 006 and compound 14 in Table 1 were respectively used as cap analogs.
# (§2) During the experiment, the volume of materials required for the system was first calculated, and then sample addition was conducted. The system was first added with sterile enzyme-free water, followed by the sequential addition of 10× buffer, NTPs, and cap analogs, mixed well, and gently centrifuged. Nuclease inhibitors, inorganic pyrophosphatase, T7 RNA polymerase, and linearized DNA templates were then added thereto. The system was mixed well, gently centrifuged, and incubated at 37° C. After 2 hours of incubation, the system was added with 1 U of DNase I and incubated at 37° C. for another 30 minutes. The mRNA precipitate was then washed with 75% ethanol, and after the ethanol was briefly evaporated to dryness, the mRNA was redissolved in sterile enzyme-free water.
# (3) The transcription product was purified, and the in vitro transcription yield of mRNA was recorded.
# T7 RNA polymerase [2] = target: T1, T7 RNA polymerase; experiment: Capping rate of in vitro transcribed mRNA by LC-MS; assay type: biochemical; settings: difference to compound 14
# Experimental: as §1, §2
# (4) The obtained mRNA was subjected to an annealing reaction with a probe.
# The annealing reaction was performed in a PCR instrument: 95° C. for 5 minutes; 65° C. for 2 minutes; 55° C. for 2 minutes; 40° C. for 2 minutes; 22° C. for 2 minutes.
# (5) Magnetic bead pretreatment and probe binding: 100 μL of magnetic beads was placed on a magnetic frame for pretreatment. The magnetic bead solution was added with 120 μL of sample and incubated at room temperature for 30 minutes with slow mixing.
# (6) mRNA splicing and obtaining the 5′ single-strand sequence bound to the probe
# The mixture was added with 20 μL of RNase H (5 U/μL) and incubated at 37° C. for 3 hours with mixing every half hour. After incubation, the magnetic beads were washed and then added with 100 μL of 75% methanol heated to 80° C. The mixture was heated to 80° C. on a heating plate, held for 3 minutes, then placed on a magnetic frame to aspirate the supernatant, and dried at room temperature for 45 minutes to a volume of 10 μL using a centrifugal evaporator. The sample was then resuspended in 50 μL of 100 μM EDTA/1% MeOH and ready for LC-MS analysis to determine the capping of RNA in the transcription reaction. Since there is a significant difference in molecular weight between capped and uncapped bases, the capping rate of mRNA transcription initiated by different cap analogs can be determined based on the difference in molecular mass.
# HEK293T cells = experiment: Translation efficiency of capped luciferase mRNAs; assay type: cell-based
# Experimental: (1) HEK293T cells were cultured in DMEM medium containing 10% FBS and penicillin/streptomycin at 37° C. with 5% CO2.
# (2) Cells in the culture dish were digested and counted, then spread in a 96-well plate at 10,000 cells per well, and cultured overnight until the cells adhered to the wall.
# (3) When the cell density reached approximately 80%, transfection was performed by adding 0.5 μg of mRNA sample and Lipofectamine MessengerMAX Transfection Reagent (Invitrogen) per well according to the manufacturer's instructions.
# (4) After the transfected cells were cultured at 37° C. with 5% CO2 for 24 hours, the growth medium was removed from the cells to be tested, and the cells were rinsed with PBS. After centrifugation to remove PBS, 50 μL of 1× lysis buffer was added. The cells and all liquid were transferred to a microcentrifuge tube and centrifuged.
# (5) 20 μL of sample was taken and added to 100 μL of Dual-Lumi™ II Luciferase Assay Reagent pre-equilibrated to room temperature, and mixed appropriately.
# (6) The mixture was incubated at room temperature (approximately 25° C.) for 5 minutes to stabilize the luminescence signal. Chemiluminescence was detected using a multifunctional microplate reader with a function for detecting chemiluminescence, and the data were recorded.
# BALB/C mice = experiment: In vivo imaging of protein expressed by LNP-carrying Fluc-mRNA in mice; settings: for Average radiation intensity: female BALB/C mice; for average radiation intensity, times that of N-7413: ratio to N-7413; for average radiation intensity, times that of YK-CAP-001: ratio to YK-CAP-001; for average radiation intensity, times that of YK-CAP-002: ratio to YK-CAP-002; for average radiation intensity, times that of compound 14: ratio to compound 14; for average radiation intensity, times that of m6A: ratio to m6A
# Experimental: The LNP preparation containing […] of Fluc-mRNAs transcribed using the cap analogs YK-CAP-001 to 006 in the present disclosure and the cap analogs N-7413, compound 14, and m6A in the prior art was intramuscularly injected into female BALB/C mice aged 4 to 6 weeks and weighing 17 to 19 g. At specific time points after administration (6 hours, 12 hours, 24 hours, 48 hours, 96 hours, and 168 hours), the mice were intraperitoneally injected with fluorescence imaging substrate. The mice were then allowed to move freely for 5 minutes, followed by detection of the average radiation intensity (corresponding to the amount of protein expression) of the protein expressed by LNP-carrying mRNA in the mice using an IVIS Spectrum small-animal in vivo imaging system.
# T1 sequence (P00573 whole entry): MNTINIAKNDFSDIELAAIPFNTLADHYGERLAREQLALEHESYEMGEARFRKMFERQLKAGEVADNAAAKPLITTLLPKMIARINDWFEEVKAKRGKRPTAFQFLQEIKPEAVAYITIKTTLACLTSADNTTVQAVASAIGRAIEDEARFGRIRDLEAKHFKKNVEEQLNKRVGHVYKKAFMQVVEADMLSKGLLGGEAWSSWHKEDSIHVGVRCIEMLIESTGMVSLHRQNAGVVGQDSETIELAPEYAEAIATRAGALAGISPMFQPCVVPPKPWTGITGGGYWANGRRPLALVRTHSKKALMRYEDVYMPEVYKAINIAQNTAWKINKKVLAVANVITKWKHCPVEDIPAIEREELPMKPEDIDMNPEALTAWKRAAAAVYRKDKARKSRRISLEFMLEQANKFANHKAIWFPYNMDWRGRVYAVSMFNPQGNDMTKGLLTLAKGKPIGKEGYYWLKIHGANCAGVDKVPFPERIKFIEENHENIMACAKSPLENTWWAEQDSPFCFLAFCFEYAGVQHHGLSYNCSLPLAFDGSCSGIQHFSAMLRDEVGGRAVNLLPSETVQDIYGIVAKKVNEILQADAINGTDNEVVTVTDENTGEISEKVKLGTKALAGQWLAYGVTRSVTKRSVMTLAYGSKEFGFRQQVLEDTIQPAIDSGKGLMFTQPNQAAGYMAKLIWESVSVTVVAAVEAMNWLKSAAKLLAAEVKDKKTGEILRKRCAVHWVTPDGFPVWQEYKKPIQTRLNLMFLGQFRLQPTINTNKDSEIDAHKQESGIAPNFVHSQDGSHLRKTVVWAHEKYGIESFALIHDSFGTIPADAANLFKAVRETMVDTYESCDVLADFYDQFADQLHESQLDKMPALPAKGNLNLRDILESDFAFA
structure (smiles),measurement,setting,value
COC1C(OP(=O)([O-])OC[C@H]2O[C@@H](n3cnc4c(=O)[nH]c(N)nc43)C(O)C2O)[C@@H](COP(=O)(O)OP(=O)(O)OP(=O)(O)OC[C@]23O[C@@H]([n+]4cn(C)c5c(=O)[nH]c(N)nc54)C(O[C@H]2CCS(=O)(=O)N(C)C)C3O)O[C@H]1n1cnc2c(N)ncnc21 (stereo partly drawn) [YK-CAP-006],Yield per unit template,"T7 RNA polymerase [1]; in vitro transcription, 1 μg DNA template, 20 μL system, 37° C. 2 hours",153.1 µg
same,transcription yield higher than that of compound 14,T7 RNA polymerase [1]; relative to compound 14,26.6%
same,capping rate higher than that of compound 14,T7 RNA polymerase [2],17.6%
same,"relative fluorescence intensity, times that of HN3002",HEK293T cells; ratio to HN3002,1.2 times
same,"relative fluorescence intensity, times that of N-7413",HEK293T cells; ratio to N-7413,1.3 times
same,"relative fluorescence intensity, times that of YK-CAP-001",HEK293T cells; ratio to YK-CAP-001,1.7 times
same,"relative fluorescence intensity, times that of YK-CAP-002",HEK293T cells; ratio to YK-CAP-002,1.9 times
same,"relative fluorescence intensity, times that of m6A",HEK293T cells; ratio to m6A,3.7 times
same,Average radiation intensity,BALB/C mice; 6 h after intramuscular injection of LNP Fluc-mRNA,3303900 p/s/cm^2/sr
same,Average radiation intensity,BALB/C mice; 12 h after intramuscular injection of LNP Fluc-mRNA,2067750 p/s/cm^2/sr
same,Average radiation intensity,BALB/C mice; 24 h after intramuscular injection of LNP Fluc-mRNA,976550 p/s/cm^2/sr
same,Average radiation intensity,BALB/C mice; 48 h after intramuscular injection of LNP Fluc-mRNA,798075 p/s/cm^2/sr
same,Average radiation intensity,BALB/C mice; 96 h after intramuscular injection of LNP Fluc-mRNA,75840 p/s/cm^2/sr
same,Average radiation intensity,BALB/C mice; 168 h after intramuscular injection of LNP Fluc-mRNA,15660 p/s/cm^2/sr
same,"average radiation intensity, times that of N-7413",BALB/C mice; at 6 hours,1.2 times
same,"average radiation intensity, times that of YK-CAP-001",BALB/C mice; at 6 hours,1.9 times
same,"average radiation intensity, times that of YK-CAP-002",BALB/C mice; at 6 hours,2.3 times
same,"average radiation intensity, times that of compound 14",BALB/C mice; at 6 hours,1.3 times
same,"average radiation intensity, times that of m6A",BALB/C mice; at 6 hours,1.8 times
same,"average radiation intensity, times that of N-7413",BALB/C mice; at 96 hours,1.1 times
same,"average radiation intensity, times that of YK-CAP-001",BALB/C mice; at 96 hours,1.7 times
same,"average radiation intensity, times that of YK-CAP-002",BALB/C mice; at 96 hours,3.6 times
same,"average radiation intensity, times that of compound 14",BALB/C mice; at 96 hours,1.3 times
same,"average radiation intensity, times that of m6A",BALB/C mice; at 96 hours,2.3 times
